Legend:
[1] = test system: Mouse BCR transgenic B cells; test: Antigen presentation of mouse BCR transgenic B cells (antigen-loading via MHC II); type: cell-based; settings: Mouse BCR tg B cell; stimulus HEL; mean of at least four experiments; read-out: IC50 APC function
Description: Purification of CD19^+ splenic B cells from MD4 HEL BcR Tg mice MD4 HEL BcR transgenic B10.BR (MD4 B10.BR) mice were a kind gift from Prof. Jose Moreno (Research Unit on Autoimmune Diseases, Centro Medico Nacional Siglo XXI, Mexico).
The spleens were isolated from MD4 B10.BR and non-transgenic litter control B10.BR mice after sacrificed by exposure to excess amount of isoflurane. The isolated spleens were suspended in RPMI1640 (Invitrogen, #31870), and dissociated by GentleMACS Dissociator (Miltenyi Biotec), and filtrated with Cell Strainer (BD Falcon, 70 μm mesh, #352350). […] The purity was determined via the proportion of CD19 cells in the separated fraction in FACS analysis, and was more than 95%.
Purified B cells were re-suspended in 50 μl of ice-cold FACS buffer (PBS supplemented with 0.1% azide and 0.1% BSA). […] Stained cell samples were washed with 5 ml of ice-cold FACS buffer twice, and analyzed by FACS Calibur (BD Bioscience). […]
FACS Data was analyzed, and their mean fluorescence intensity (MFI) were calculated with FlowJo software (Tree Star Inc). The IC50 values were calculated with GraphPad PRISM ver 6.0 software (GraphPad Software Inc). […]

[2] = test system: B cells from Buffy Coat; test: CXCL13-induced B cell migration (transwell); type: cell-based, human; settings: for cell count (migrated B cells): mean of 4 wells
Experimental: PBMC were isolated from Buffy Coat as described above. Cells were washed two times with PBS and then resuspended at 5×10^7/mL in PBS containing 2% FBS and 1 mM EDTA. Further B cell purification was performed via depletion of non-B cells with an EasySep™ Human B Cell Enrichment Kit (STEMCELL Technologies #19054) according to the manufacture's instruction. In brief, 4×10^8 PBMCs in 8 ml isolation buffer were incubated with 400 ul of enrichment cocktail in a 14 mL round-bottom tube for 10 minutes at room temperature. PBMC were further incubated with 600 ul of magnetic particles for 5 minutes at room. For B cell isolation, the tube was placed into the magnet for 5 min and enriched B cells were collected in a fresh 14 ml tube. Cells were then washed and resuspended at 5×10^6/mL in RPMI 1640 medium supplemented with 10% FBS, Gentamycine (50 ug/ml), Insulin-Transferrin-Selenium and P-Mercaptoethanol (50 uM).
Isolated B cells were dispensed to 5 ml round-bottom tube (Costar #352054) and incubated with pre-diluted compound A resulting in a dilution with a final concentration of 10, 1, 0.1 or 0.01 uM. Control samples were pretreated with DMSO to obtain a final concentration of 0.1% DMSO. Samples were mixed thoroughly and incubated in a water bath at 37° C. for 30 minutes. Some 235 ul of CXCL13 (R&D Systems #801-CX) in a dilution with a final concentration of 100 nM was added to the wells of the 96-well transwell receiver plate (Costar #3387). Control wells were filled with 235 ul medium. The 5 um permeable support insert was added to the receiver plate and filled with 80 ul of pre-incubated B cells. Transwell plate was incubated in a humified incubator at 37° C. for 3 h. Permeable support insert was removed and cell number in receiver plate was assessed by flow cytometry.

- IC50 [1]: 395 nM
SMILES: CCC(=O)N1CC[C@H](Nc2ncnc3c2CN(c2cnc(OC)c(C(F)(F)F)c2)CC3)C1 [Compound A, 1-{(S)-3-[6-(6-Methoxy-5-trifluoromethyl-pyridin-3-yl)-5,6,7,8-tetrahydro-pyrido[4,3-d]pyrimidin-4-ylamino]-pyrrolidin-1-yl}-propan-1-one]
- inhibition at 0.01 µM ([2]; Homo sapiens, B-cell, compound A 10 nM): 13%
- inhibition at 0.1 µM ([2]; Homo sapiens, B-cell, compound A 100 nM): 39%
- inhibition at 1 µM ([2]; Homo sapiens, B-cell, compound A 1000 nM): 52%
- inhibition at 10 µM ([2]; Homo sapiens, B-cell, compound A 10000 nM): 79%
- cell count (migrated B cells) ([2]; compound A 10 nM): 6165
- cell count (migrated B cells) ([2]; compound A 100 nM): 4556
- cell count (migrated B cells) ([2]; compound A 1000 nM): 3743
- cell count (migrated B cells) ([2]; compound A 10000 nM): 2043
